Experimental data reported in patent publication US20180228811A1, “GDNF INDUCTION FOR THE TREATMENT OF RETINAL DISORDERS” (THE SCHEPENS EYE RESEARCH INSTITUTE, INC., priority 2014, published 2018).

Experiments:
GDNF [1] = experiment: GDNF induction by Compound I suspension in wild-type mice; type: in vivo, mouse; settings: suspension intravitreally; for GDNF mRNA induction vs. vehicle / GDNF protein level vs. vehicle: wild-type mice
Description: To study GDNF induction by Compound I suspension (60 mg/ml), 2 ul of suspension (n=35) or Vehicle (n=5) were administered intravitreally to 3-week old wild-type (C57/Bl6) mice. A beveled glass needle connected to a Hamilton syringe through polyethylene tubing was ysed. During the injection, corneal paracenthesis was performed to reduce intraocular pressure.
Animals were euthanized at several timepoints after injection for enucleation and RNA/protein analysis (n=5 for each timepoint, n=4 for 7 days and 14 days): vehicle at 1 hour, Compound I at 1 hour, 1 day, 2 days, 7 days and 14 days. The treated and untreated eyes were enucleated and were collected for mRNA and protein expression as previously described. The treated and untreated eyes were enucleated and placed in 250 ul of chilled RNAlater buffer (Qiagen) and stored at 4° C. The eyes were excised and total neural retina with retinal pigment epithelium was collected into 400 ul of Lysis buffer (Qiagen RNeasy kit) with beta-mercaptoethanol. Total RNA was isolated using RNeasy kit (Qiagen) and eluted with 100 ul of Ultrapure water (Life technologies). All flow through from RNA isolation (˜2.4 ml) was collected and mixed with 10 ml of ice-cold (−20° C.) acetone for protein precipitation. The protein was precipitated at −20° C. for 30 minutes, then pelleted at 3500 rpm for 20 min. Pellets were washed once with 100% ethanol, then reconstituted with 300 ul of RIPA buffer with AEBSF. mRNA and protein expression were assessed by qPCR and Western blot (WB). The results were analyzed by ANOVA (p<0.05).

GDNF mRNA = GDNF mRNA time-course in ARPE19 cells (qPCR); type: cell-based, human; settings: ARPE19, 100 nM Compound I, normalized by GAPDH and ßActin
Description: GDNF induction […] was assessed using three retinal-specific cell systems: ARPE19, as a model for human retinal pigment epithelium; human retinal progenitor cells (hRPC), as a substitute for human retinal neurons/glia; and mouse eyecups, differentiated from induced pluripotent stem cells. ARPE19 cells are described in Dunn et al., Exp. Eye Res. 62: 155-169, 1996. To study GDNF induction in a human retinal pigment epithelium cell line, ARPE19, thawed ARPE19 cells (passage 33, ATCC) were plated on fibronectin (Akron)-coated plates (Nunc) in stimulation medium at a density of 10 k cells/sq.cm. The flasks were incubated at standard conditions: 37° C., 5% CO2, 100% humidity. Cells were plated 24 hours prior to Compound I treatment and were grown in Ultraculture medium (Lonza), supplemented with 1×MEM NEAA (Gibco), 1× L-glutamine (Gibco), 1× Antibiotic/antimycotic (Gibco), 2 ng/ml bFGF (Peprotech), 1 ng/ml EGF (Peprotech). For qPCR analysis, the experiments were performed in 35 mm Petri dishes in 2 ml of medium with Compound I concentration of 100 nM (DMSO-based solution). Total mRNA was isolated at 0, 15, 30, 60, 120, 240 minutes post stimulation. For protein expression determination by ELISA, the experiments were performed in 96 well plates in 100 ul of medium with each condition (concentrations ranging from 0 to 10 uM) reproduced in 3 wells. […]

[2] = Pharmacokinetic studies of Compound I sustained release formulation (suspension) in wild-type mice; type: in vivo, mouse; settings: for Compound I content in the collected vitreoretinal samples / Compound I concentration in the vitreoretinal sample: 2 ul of 60 mg/ml suspension intravitreally; for total Compound I content per eye: suspension intravitreally
Description: To profile pharmacokinetics of Compound I after single intravitreal injection, 2 ul of Compound I suspension (60 mg/ml) were administered intravitreally to 3 week old wild-type (C57/Bl6) mice in the same way as described above for the solution. A beveled glass needle connected to a Hamilton syringe through polyethylene tubing was used. During the injection, corneal paracenthesis was performed to reduce intraocular pressure.
For enucleation animals were euthanized at several timepoints after injection: 1 hour (n=5), 1 day (n=3), 2 days (n=3), 7 days (n=3) and 14 days (n=3). The eyes were enucleated and placed in chilled phosphate-buffered saline and kept on ice. The eyes were dissected within 30 minutes post-enucleation: total retina and vitreous were collected into pre-weighed tubes, weighted and snap frozen. For Compound I content in the eye analysis retina and vitreous humor samples were diluted in 0.1% formic acid in 90:10 (v:v) acetonitrile:water before being analyzed for Compound I using an analytical method based on protein precipitation, followed by HPLC/MS/MS analysis. Using a 25 μL aliquot of sample, the lower limit of quantification (LLQ) for Compound I was 1.00 ng/mL. The computer systems that were used on this study to acquire and quantify data included Analyst Version 1.6.1 and SMS2000 version 2.3. The results were analyzed by ANOVA (p<0.05).

GDNF [3] = experiment: GDNF protein induction in ARPE19 cells (ELISA); type: cell-based, human
Description: (§1) GDNF induction […] was assessed using three retinal-specific cell systems: ARPE19, as a model for human retinal pigment epithelium; human retinal progenitor cells (hRPC), as a substitute for human retinal neurons/glia; and mouse eyecups, differentiated from induced pluripotent stem cells. ARPE19 cells are described in Dunn et al., Exp. Eye Res. 62: 155-169, 1996. To study GDNF induction in a human retinal pigment epithelium cell line, ARPE19, thawed ARPE19 cells (passage 33, ATCC) were plated on fibronectin (Akron)-coated plates (Nunc) in stimulation medium at a density of 10 k cells/sq.cm. The flasks were incubated at standard conditions: 37° C., 5% CO2, 100% humidity. Cells were plated 24 hours prior to Compound I treatment and were grown in Ultraculture medium (Lonza), supplemented with 1×MEM NEAA (Gibco), 1× L-glutamine (Gibco), 1× Antibiotic/antimycotic (Gibco), 2 ng/ml bFGF (Peprotech), 1 ng/ml EGF (Peprotech). For qPCR analysis, the experiments were performed in 35 mm Petri dishes in 2 ml of medium with Compound I concentration of 100 nM (DMSO-based solution). Total mRNA was isolated at 0, 15, 30, 60, 120, 240 minutes post stimulation. For protein expression determination by ELISA, the experiments were performed in 96 well plates in 100 ul of medium with each condition (concentrations ranging from 0 to 10 uM) reproduced in 3 wells. For ELISA analysis, plates were removed from out of incubator 24 hours post stimulation and freeze-thawed followed by CHAPS lysis buffer treatment for total […] extraction. The ELISA analysis for GDNF was performed using GDNF DuoSet kit (R&D systems) using manufacturer's instructions.

GDNF [4] = experiment: GDNF induction in human retinal progenitor cells (hRPC) (ELISA); type: cell-based
Description: as §1
Experiments with human retinal progenitor cell line (hRPC) were performed in a similar manner (Baranov et al., Tissue Eng Part A 20, 140124133442001-1475 (2014)): hRPC were thawed and plated (passage 15) in 96 well plates using the same conditions and density as described above for ARPE19. The cell treatment, sample collection and readout were performed using the same protocol. […]

[5] = wt mice, 14 days post injection

time drug may be present according to modeling ([2]; single 2 ul intravitreal injection of suspension, modeling): up to 4 weeks | Compound I content in the collected vitreoretinal samples ([2]; wt mice, 1 hour post-injection): 21 ug per milligram of tissue | Compound I concentration in the vitreoretinal sample ([2]; wt mice, 14 days): 5 mg/g tissue | Compound I content in the collected vitreoretinal samples [2, 5]: 5 ug per milligram of tissue | Compound I concentration in the vitreoretinal sample ([2]; wt mice, start of time course (1 hour)): 20 mg/g tissue | time the compound remained in the eye after single intravitreal injection ([2]; wt mice, single 2 ul injection of suspension): at least 2 weeks | total Compound I content per eye ([2]; wt mice, 1 hour post-injection): 80 µg | total Compound I content per eye [2, 5]: 28 µg
SMILES: COc1cc2c(cc1S(=O)(=O)c1ccc(OCc3ccc(Cl)cc3)cc1)CCN(C)CC2 [Compound I, 7-[4-(4-chloro-benzyloxy)-benzenesulfonyl]-8-methoxy-3-methyl-2,3,4,5-tetrahydro-1H-3-benzazepine]
GDNF mRNA upregulation over the time course (GDNF [1]; C57Bl/6 mice, up to 14 days): > 1.8 fold | GDNF protein upregulation over the time course (GDNF [1]; C57Bl/6 mice, up to 14 days): > 2.8 fold | GDNF mRNA induction vs. vehicle (GDNF [1]; 1 hour): 1.4 fold | GDNF protein level vs. vehicle (GDNF [1]; 1 hour): 0.9 fold | GDNF mRNA induction vs. vehicle (GDNF [1]; 1 day): 1.3 fold | GDNF protein level vs. vehicle (GDNF [1]; 1 day): 1.6 fold | GDNF mRNA induction vs. vehicle (GDNF [1]; 2 days): 1.2 fold | GDNF protein level vs. vehicle (GDNF [1]; 2 days): 2.4 fold | GDNF mRNA induction vs. vehicle (GDNF [1]; 7 days): 1.8 fold | GDNF protein level vs. vehicle (GDNF [1]; 7 days): 2.7 fold | GDNF mRNA induction vs. vehicle (GDNF [1]; 14 days): 1.8 fold | GDNF protein level vs. vehicle (GDNF [1]; 14 days): 3.2 fold | time of GDNF mRNA peak after stimulation (GDNF mRNA): 30 min | GDNF induction (GDNF [3]; ARPE19): More than 2 fold | GDNF induction, result in words (GDNF [3]; ARPE19, 0 to 10 uM): Significant dose-dependent GDNF induction | concentration of Compound I at which GDNF was upregulated (GDNF [3]; ARPE19, ELISA, FIG. 1C): 3 µM | increase of GDNF protein levels in vitro (GDNF [3]; in vitro, cell system not stated (mRNA was measured in ARPE19 only)): 1.8 fold | GDNF induction (GDNF [4]): More than 2 fold | GDNF induction, result in words (GDNF [4]; 0 to 10 uM): Significant dose-dependent GDNF induction | concentration of Compound I at which GDNF was upregulated (GDNF [4]; ELISA, FIG. 1B): 1 µM
